# Assay results published in patent US20220089575A1, “FARNESOID X RECEPTOR AGONISTS AND USES THEREOF” (Metacrine, Inc., priority 2017, published 2022).
# Target: T1, hFXR (Homo sapiens, UniProt Q96RI1)
# T1 construct: expressed in transfected cells; host or cells: CV-1 cells
# T1 sequence (Q96RI1 1-486): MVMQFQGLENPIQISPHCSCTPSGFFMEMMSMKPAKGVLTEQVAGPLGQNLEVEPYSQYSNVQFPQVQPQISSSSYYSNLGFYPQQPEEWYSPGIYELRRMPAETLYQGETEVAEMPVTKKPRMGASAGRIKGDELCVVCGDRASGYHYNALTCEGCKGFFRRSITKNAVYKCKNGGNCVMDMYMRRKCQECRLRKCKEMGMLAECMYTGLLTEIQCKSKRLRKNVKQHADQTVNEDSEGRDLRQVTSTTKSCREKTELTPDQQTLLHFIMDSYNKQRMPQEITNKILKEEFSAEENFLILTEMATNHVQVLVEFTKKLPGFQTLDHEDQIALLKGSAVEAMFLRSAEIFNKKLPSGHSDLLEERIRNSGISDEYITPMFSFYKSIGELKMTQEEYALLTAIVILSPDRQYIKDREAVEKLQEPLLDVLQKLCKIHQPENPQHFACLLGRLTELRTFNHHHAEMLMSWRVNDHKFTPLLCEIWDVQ
# T1 sequence (P19793 1-462 partner): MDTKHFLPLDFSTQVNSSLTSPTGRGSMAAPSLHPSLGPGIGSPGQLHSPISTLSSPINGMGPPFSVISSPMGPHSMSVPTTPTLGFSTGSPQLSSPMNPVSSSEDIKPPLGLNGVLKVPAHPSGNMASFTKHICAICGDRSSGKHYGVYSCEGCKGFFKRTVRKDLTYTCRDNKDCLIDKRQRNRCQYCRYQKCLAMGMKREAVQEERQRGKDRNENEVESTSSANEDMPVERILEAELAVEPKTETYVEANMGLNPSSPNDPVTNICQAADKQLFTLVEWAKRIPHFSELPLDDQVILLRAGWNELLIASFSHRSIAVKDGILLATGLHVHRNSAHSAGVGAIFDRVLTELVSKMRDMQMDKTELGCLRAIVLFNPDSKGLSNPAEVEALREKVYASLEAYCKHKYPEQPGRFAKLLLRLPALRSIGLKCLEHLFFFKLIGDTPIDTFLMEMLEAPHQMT
# Experiment: In Vitro FXR Assay (TK): TK-ECRE-luc reporter in transfected CV-1 cells
# Type: cell-based
# Settings: 18 hrs, luminescence, maximum efficacy of <25% of the Fexarmine control classified as '+'
# In short: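 CV-1 cells transiently co-transfected with hFXR, hRXR, TK-ECRE-luc and pCMX-YFP plasmids in charcoal-stripped serum medium. Serially diluted compounds added, cells incubated 18 h at 37° C, then lysed and luminescence read.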
row,SMILES,EC50 [µM]
1,"COc1ccc([C@H]2CC[C@H](CN(c3cc(-c4coc(C5CC5)n4)ccn3)C(=O)[C@H]3CC[C@H](OC(=O)N4CC(O)C4)CC3)CC2)cc1C#N [Compound 7.69, trans-4-(((trans-4-(3-Cyano-4-methoxyphenyl)cyclohexyl)methyl)(4-(2-cyclopropyloxazol-4-yl)pyridine-2-yl)carbamoyl)cyclohexyl 3-hydroxyazetidine-1-carboxylate]",≤ 0.25
2,"COc1ccc([C@H]2CC[C@H](CN(c3cccc(-c4coc(C5CC5)n4)c3)C(=O)[C@H]3CC[C@H](OC(=O)N4CC(O)C4)CC3)CC2)nc1C#N [Compound 7.70, trans-4-(((trans-4-(6-Cyano-5-methoxypyridin-2-yl)cyclohexyl)methyl)(3-(2-cyclopropyloxazol-4-yl)phenyl)carbamoyl)cyclohexyl 3-hydroxyazetidine-1-carboxylate]",≤ 0.25
3,"COc1ccc([C@H]2CC[C@H](CN(c3cc(-c4coc(C(C)C)n4)ccn3)C(=O)[C@H]3CC[C@H](OC(=O)N4CC(O)C4)CC3)CC2)nc1C [Compound 7.71, trans-4-((4-(2-Isopropyloxazol-4-yl)pyridine-2-yl)((trans-4-(5-methoxy-6-methylpyridin-2-yl)cyclohexyl)methyl)carbamoyl)cyclohexyl 3-hydroxyazetidine-1-carboxylate]",≤ 0.25
4,"COc1ccc([C@H]2CC[C@H](CN(c3cc(-c4coc(C5CC5)n4)ccn3)C(=O)[C@H]3CC[C@H](OC(=O)N4CC(O)C4)CC3)CC2)nc1C#N [Compound 7.72, trans-4-(((trans-4-(6-Cyano-5-methoxypyridin-2-yl)cyclohexyl)methyl)(4-(2-cyclopropyloxazol-4-yl)pyridine-2-yl)carbamoyl)cyclohexyl 3-hydroxyazetidine-1-carboxylate]",≤ 0.25
5,"COc1ccc([C@H]2CC[C@H](CN(c3cc(-c4coc(C(C)C)n4)ccn3)C(=O)[C@H]3CC[C@H](OC(=O)N4CC(O)C4)CC3)CC2)cc1C#N [Compound 7.73, trans-4-(((trans-4-(3-Cyano-4-methoxyphenyl)cyclohexyl)methyl)(4-(2-isopropyloxazol-4-yl)pyridine-2-yl)carbamoyl)cyclohexyl 3-hydroxyazetidine-1-carboxylate]",≤ 0.25
6,"COc1ccc([C@H]2CC[C@H](CN(c3cccc(-c4coc(C(C)C)n4)c3)C(=O)[C@H]3CC[C@H](OC(=O)N4CC(O)C4)CC3)CC2)nc1C#N [Compound 7.74, trans-4-(((trans-4-(6-Cyano-5-methoxypyridin-2-yl)cyclohexyl)methyl)(3-(2-isopropyloxazol-4-yl)phenyl)carbamoyl)cyclohexyl 3-hydroxyazetidine-1-carboxylate]",≤ 0.25
7,"COc1ccc([C@H]2CC[C@H](CN(c3cc(-c4coc(C5CC5)n4)ccn3)C(=O)[C@H]3CC[C@H](OC(=O)N4CCC4)CC3)CC2)nc1C [Compound 7.75, trans-4-((4-(2-Cyclopropyloxazol-4-yl)pyridine-2-yl)((trans-4-(5-methoxy-6-methylpyridin-2-yl)cyclohexyl)methyl)carbamoyl)cyclohexyl azetidine-1-carboxylate]",≤ 0.25
8,"COc1ccc([C@H]2CC[C@H](CN(c3cc(-c4coc(C5CC5)n4)ccn3)C(=O)[C@H]3CC[C@H](OC(=O)N4CC(OC)C4)CC3)CC2)nc1C [Compound 7.76, trans-4-((4-(2-Cyclopropyloxazol-4-yl)pyridine-2-yl)((trans-4-(5-methoxy-6-methylpyridin-2-yl)cyclohexyl)methyl)carbamoyl)cyclohexyl 3-methoxyazetidine-1-carboxylate]",≤ 0.25
9,"COCC1CN(C(=O)O[C@H]2CC[C@H](C(=O)N(C[C@H]3CC[C@H](c4ccc(OC)c(C)n4)CC3)c3cc(-c4coc(C5CC5)n4)ccn3)CC2)C1 [Compound 7.77, trans-4-((4-(2-Cyclopropyloxazol-4-yl)pyridin-2-yl)((trans-4-(5-methoxy-6-methylpyridin-2-yl)cyclohexyl)methyl)carbamoyl)cyclohexyl 3-(methoxymethyl)azetidine-1-carboxylate]",≤ 0.25
10,"COc1ccc([C@H]2CC[C@H](CN(c3cc(-c4coc(C5CC5)n4)ccn3)C(=O)[C@H]3CC[C@H](OC(=O)N(C)C)CC3)CC2)nc1C [Compound 7.78, trans-4-((4-(2-Cyclopropyloxazol-4-yl)pyridine-2-yl)((trans-4-(5-methoxy-6-methylpyridin-2-yl)cyclohexyl)methyl)carbamoyl)cyclohexyl dimethylcarbamate]",≤ 0.25
11,"COc1ccc([C@H]2CC[C@H](CN(c3cc(-c4coc(C5CC5)n4)ccn3)C(=O)[C@H]3CC[C@H](OC(=O)N4CC(N(C)C)C4)CC3)CC2)nc1C [Compound 7.79, trans-4-((4-(2-Cyclopropyloxazol-4-yl)pyridine-2-yl)((trans-4-(5-methoxy-6-methylpyridin-2-yl)cyclohexyl)methyl)carbamoyl)cyclohexyl 3-(dimethylamino)azetidine-1-carboxylate]",≤ 0.25

# More lines, now with the values ahead:
row,EC50 [µM],SMILES
1,≤ 0.25,"COc1ccc([C@H]2CC[C@H](CN(c3cc(-c4coc(C5CC5)n4)ccn3)C(=O)[C@H]3CC[C@H](OC(=O)N4CC(CO)C4)CC3)CC2)nc1C [Compound 7.80, trans-4-(4-(2-Cyclopropyloxazol-4-yl)pyridine-2-yl)((trans-4-(5-methoxy-6-methylpyridin-2-yl)cyclohexyl)methyl) carbamoyl)cyclohexyl 3-(hydroxymethyl)azetidine-1-carboxylate]"
2,≤ 0.25,"COc1ccc([C@H]2CC[C@H](CN(c3cc(-c4coc(C5CC5)n4)ccn3)C(=O)[C@H]3CC[C@H](OC(=O)N4CC(N(C)C)C4)CC3)CC2)cc1C [Compound 7.81, trans-4-((4-(2-Cyclopropyloxazol-4-yl)pyridine-2-yl)((trans-4-(4-methoxy-3-methylphenyl)cyclohexyl)methyl)carbamoyl)cyclohexyl 3-(dimethylamino)azetidine-1-carboxylate]"
3,≤ 0.25,"COc1ccc([C@H]2CC[C@H](CN(c3cc(-c4coc(C(C)C)n4)ccn3)C(=O)[C@H]3CC[C@H](OC(=O)N4CC(OC)C4)CC3)CC2)nc1C [Compound 7.82, trans-4-((4-(2-Isopropyloxazol-4-yl)pyridine-2-yl)((trans-4-(5-methoxy-6-methylpyridin-2-yl)cyclohexyl)methyl)carbamoyl)cyclohexyl 3-methoxyazetidine-1-carboxylate]"
4,≤ 0.25,"COc1ccc([C@H]2CC[C@H](CN(c3cc(-c4coc(C(C)C)n4)ccn3)C(=O)[C@H]3CC[C@H](OC(=O)N4CC(OC(C)C)C4)CC3)CC2)nc1C [Compound 7.83, trans-4-((4-(2-Isopropyloxazol-4-yl)pyridin-2-yl)((trans-4-(5-methoxy-6-methylpyridin-2-yl)cyclohexyl)methyl)carbamoyl)cyclohexyl 3-isopropoxyazetidine-1-carboxylate]"
5,≤ 0.25,"COc1ccc([C@H]2CC[C@H](CN(c3cc(-c4coc(C(C)C)n4)ccn3)C(=O)[C@H]3CC[C@H](OC(=O)N4CC(N(C)C)C4)CC3)CC2)nc1C [Compound 7.84, trans-4-((4-(2-Isopropyloxazol-4-yl)pyridine-2-yl)((trans-4-(5-methoxy-6-methylpyridin-2-yl)cyclohexyl)methyl)carbamoyl)cyclohexyl 3-(dimethylamino)azetidine-1-carboxylate]"
